# Experimental data published in the supplement of paper PMC10307832.
# Assays:
# Assay in all cases: relative viability (nuclei count vs DMSO), 5 days (fraction); higher = more cells survive
# [1] = compound: C1CCC(CC1)N(CCNCCC2=C3C(=C(C=C2)O)NC(=O)CO3)C(=O)CCNCCC4=CC(=C(C=C4)Cl)Cl [AZ505] + CC1(C)CCC(c2ccc(Cl)cc2)=C(CN2CCN(c3ccc(C(=O)NS(=O)(=O)c4ccc(N[C@H](CCN5CCOCC5)CSc5ccccc5)c(S(=O)(=O)C(F)(F)F)c4)cc3)CC2)C1 [Navitoclax] (partner 0.5 µM)
# How it was run: (§1)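 Lung cancer cell lines, seeded in 1536-well plates, were treated the following day by pin tool with a single drug or with five library-drug doses (not always all listed) in √10 steps on top of a fixed anchor-drug dose. Cells were fixed and nuclei stained in one step after 5 days, and nuclei were counted. Relative viability is the nuclei count for treated wells divided by that for vehicle wells, reported as medians of duplicate plates.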
# [2] = compound: C1CCC(CC1)N(CCNCCC2=C3C(=C(C=C2)O)NC(=O)CO3)C(=O)CCNCCC4=CC(=C(C=C4)Cl)Cl [AZ505] + N=C(N)NC(=N)NCCc1ccccc1 [Phenformin] (partner 250 µM)
# How it was run: as §1
# [3] = compound: Cn1c(=O)n(-c2ccc(C(C)(C)C#N)cc2)c2c3cc(-c4cnc5ccccc5c4)ccc3ncc21 [Dactolisib] + CCNC(=O)c1noc(-c2cc(C(C)C)c(O)cc2O)c1-c1ccc(CN2CCOCC2)cc1 [Luminespib] (partner 0.01 µM)
# How it was run: as §1
# [4] = compound: Cn1c(=O)n(-c2ccc(C(C)(C)C#N)cc2)c2c3cc(-c4cnc5ccccc5c4)ccc3ncc21 [Dactolisib] + Cc1nc(NC(=O)N2CCC[C@H]2C(N)=O)sc1-c1ccnc(C(C)(C)C(F)(F)F)c1 [Alpelisib] (partner 2 µM)
# How it was run: as §1
Cell Line,relative viability ([1]; first compound 0.08 µM),relative viability ([1]; first compound 0.253 µM),relative viability ([1]; first compound 0.8 µM),relative viability ([1]; first compound 2.53 µM),relative viability ([1]; first compound 8 µM),relative viability ([2]; first compound 0.08 µM),relative viability ([2]; first compound 0.253 µM),relative viability ([2]; first compound 0.8 µM),relative viability ([2]; first compound 2.53 µM),relative viability ([2]; first compound 8 µM),relative viability ([3]; first compound 0.002 µM),relative viability ([3]; first compound 0.006325 µM),relative viability ([3]; first compound 0.02 µM),relative viability ([3]; first compound 0.06325 µM),relative viability ([3]; first compound 0.2 µM),relative viability ([4]; first compound 0.002 µM),relative viability ([4]; first compound 0.006325 µM),relative viability ([4]; first compound 0.02 µM),relative viability ([4]; first compound 0.06325 µM),relative viability ([4]; first compound 0.2 µM)
NCI-H1734,0.802,0.836,0.755,0.736,0.774,0.393,0.351,0.402,0.406,0.425,0.151,0.211,0.196,0.184,0.169,0.686,0.582,0.586,0.361,0.233
NCI-H1755,0.949,1.06,0.967,1.01,0.971,0.615,0.592,0.663,0.639,0.688,0.298,0.399,0.418,0.417,0.359,0.944,0.898,0.872,0.655,0.372
NCI-H1792,0.61,0.637,0.592,0.653,0.719,0.302,,0.31,0.417,0.263,0.259,0.403,0.404,0.142,0.11,0.783,0.671,0.549,0.165,0.125
NCI-H1793,0.352,0.405,0.455,0.396,0.428,0.248,0.338,0.454,,0.368,0.155,0.15,0.164,0.163,0.165,0.588,0.4,0.241,0.21,0.157
NCI-H1915,0.749,0.781,0.733,0.783,0.763,0.339,0.38,0.345,0.375,0.354,0.78,0.823,0.692,0.516,0.442,1.1,1.06,1.05,0.747,0.519
NCI-H1944,1.03,1.03,1.03,0.907,1.02,0.197,0.184,0.233,0.193,0.21,0.957,0.724,0.714,0.288,0.263,0.898,0.796,0.72,0.384,0.279
NCI-H1975,1.02,0.99,1.05,1.03,1.13,0.348,0.402,0.419,0.405,0.429,0.133,0.157,0.181,0.144,0.123,0.612,0.549,0.396,0.238,0.201
NCI-H1993,0.859,0.911,0.86,1.01,0.917,0.472,0.426,0.546,0.56,0.478,0.752,0.738,0.637,0.442,0.488,0.711,0.561,0.754,0.694,0.684
NCI-H2009,1.21,1.14,1.1,1.19,1.12,0.387,0.486,0.468,0.506,0.442,1.14,1.05,0.89,1,0.362,1.21,1.19,1.14,0.676,0.532
NCI-H2023,0.958,0.945,0.997,1.2,0.959,0.379,0.449,0.405,0.442,0.31,0.643,0.562,0.217,0.0703,0.0888,0.54,0.56,0.553,0.147,0.153
NCI-H2085,1.08,1.12,1.04,1.06,1.2,0.68,0.613,0.664,0.677,0.694,0.387,0.388,0.374,0.208,0.239,1.05,0.762,0.758,0.437,0.405
NCI-H2087,1.01,0.975,1.05,0.989,0.873,0.389,0.35,0.395,0.396,0.471,0.281,0.164,0.146,0.128,0.121,1.17,0.994,0.805,0.574,0.668
NCI-H2126,0.818,0.88,0.83,0.857,0.863,0.466,0.537,0.491,0.526,0.538,0.803,0.868,0.809,0.334,0.296,0.751,0.702,0.639,0.518,0.425
NCI-H2170,0.541,0.665,0.531,0.666,0.651,0.396,0.42,0.397,0.405,0.421,0.512,0.805,0.722,0.435,0.195,0.787,0.754,0.706,0.479,0.26
NCI-H2228,0.889,0.978,0.692,0.716,0.612,0.291,0.222,0.279,0.392,0.224,0.15,0.143,0.112,0.176,0.128,0.786,0.461,0.421,0.198,0.234
NCI-H2347,0.434,0.549,0.564,0.482,0.631,0.271,,,,0.331,0.49,0.433,0.467,0.286,0.284,1.2,1.09,0.927,0.689,0.399
